Measurements from PMC3950977 (Nanotechnology, 2011).
Peptide text beside a SMILES is read from it. * marks the point of attachment. X1 = NC(=O)CCOCCOCCOCCOCCOCCOCCOCCOCCOCCOCCOCCOCCOCCOCCOCCOCCOCCOCCOCCOCCOCCOCCOCCOCCOCCOCCOCCOCCN*

How the values were obtained:
[1] = Peptide degradation by proteinase K; assay type: in vitro ADME; details: isolated enzyme proteinase k, pH 7.1
[2] = transmission electron microscopy and dynamic light scattering; cited from earlier work

SMILES	half-life [1] [min]	diameter of self-assembled nanospheres [2] [nm]
CC[C@H](C)[C@H](NC(=O)[C@@H](NC(=O)[C@H](Cc1ccccc1)NC(=O)[C@H](CC(C)C)NC(=O)[C@@H](N)CC(C)C)C(C)C)C(=O)N[C@H](C(=O)N[C@@H](CC(C)C)C(=O)N1CCC[C@H]1C(=O)N[C@@H](Cc1ccccc1)C(=O)N[C@@H](Cc1c[nH]c2ccccc12)C(=O)N[C@@H](C)C(=O)N[C@H](C(=O)N[C@@H](CC(=O)O)C(=O)N[C@@H](C)C(=O)N[C@H](C(=O)N[C@@H](C)C(=O)N[C@@H](CC(N)=O)C(=O)N[C@@H](Cc1c[nH]c2ccccc12)C(=O)N[C@@H](Cc1ccc(O)cc1)C(=O)N[C@@H](Cc1ccccc1)C(=O)NCC(=O)N[C@@H](CC(N)=O)C(=O)N[C@@H](CC(=O)O)C(=O)N[C@@H](CC(=O)O)C(=O)NCCOCCOCCOCCOCCOCCOCCOCCOCCOCCOCCOCCOCCOCCOCCOCCOCCOCCOCCOCCOCCOCCOCCOCCOCCOCCOCCOCCOCCC(N)=O)C(C)C)C(C)C)[C@@H](C)O [x4-2-6] (H-LLFVITLPFWAVDAVANWYFGNDD-X1)	11.8 ± 1.8	10
CC[C@H](C)[C@H](NC(=O)[C@@H](NC(=O)[C@@H](N)Cc1ccccc1)C(C)C)C(=O)N[C@H](C(=O)N[C@@H](CC(C)C)C(=O)N1CCC[C@H]1C(=O)N[C@@H](Cc1ccccc1)C(=O)N[C@@H](Cc1c[nH]c2ccccc12)C(=O)N[C@@H](C)C(=O)N[C@H](C(=O)N[C@@H](CC(=O)O)C(=O)N[C@@H](C)C(=O)N[C@H](C(=O)N[C@@H](C)C(=O)N[C@@H](CC(N)=O)C(=O)N[C@@H](Cc1c[nH]c2ccccc12)C(=O)N[C@@H](Cc1ccc(O)cc1)C(=O)N[C@@H](Cc1ccccc1)C(=O)NCC(=O)N[C@@H](CC(N)=O)C(=O)N[C@@H](CC(=O)O)C(=O)N[C@@H](CC(=O)O)C(=O)NCCOCCOCCOCCOCCOCCOCCOCCOCCOCCOCCOCCOCCOCCOCCOCCOCCOCCOCCOCCOCCOCCOCCOCCOCCOCCOCCOCCOCCC(N)=O)C(C)C)C(C)C)[C@@H](C)O [x4-2-9] (H-FVITLPFWAVDAVANWYFGNDD-X1)	2.9 ± 1.2	–
